ChEMBL document CHEMBL2074560, “cDNA cloning, functional characterization, and tissue distribution of an alternatively spliced variant of organic cation transporter hOCT2 predominantly expressed in the human kidney” (J Am Soc Nephrol, 2002)
Blank lines part the entries; values can stand above or below the compound they belong to.

Tests used:
Type in all cases: functional, cell-based
[1] = molecular target: T1, Solute carrier family 22 member 2 (Homo sapiens, UniProt O15244); assay: TP_TRANSPORTER: uptake in OCT2-expressing HEK293 cells
T1 sequence (O15244 whole entry): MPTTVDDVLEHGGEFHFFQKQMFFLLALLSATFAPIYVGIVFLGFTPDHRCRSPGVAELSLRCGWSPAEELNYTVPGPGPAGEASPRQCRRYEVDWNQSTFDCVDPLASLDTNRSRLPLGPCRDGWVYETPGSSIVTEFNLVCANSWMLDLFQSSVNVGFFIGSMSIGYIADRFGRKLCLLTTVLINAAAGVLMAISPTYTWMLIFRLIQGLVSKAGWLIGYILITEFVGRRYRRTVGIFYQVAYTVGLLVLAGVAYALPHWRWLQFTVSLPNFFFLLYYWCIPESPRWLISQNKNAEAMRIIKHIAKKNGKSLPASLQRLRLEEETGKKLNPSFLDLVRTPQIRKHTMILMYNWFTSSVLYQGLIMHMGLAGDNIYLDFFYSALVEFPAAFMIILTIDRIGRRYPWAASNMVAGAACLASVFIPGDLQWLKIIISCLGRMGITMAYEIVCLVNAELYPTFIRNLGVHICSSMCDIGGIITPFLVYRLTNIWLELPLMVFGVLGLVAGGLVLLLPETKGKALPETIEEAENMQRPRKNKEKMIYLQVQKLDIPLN

[2] = molecular target: T1, Solute carrier family 22 member 2; assay: TP_TRANSPORTER: uptake in OCT2A-expressing HEK293 cells
[3] = molecular target: T1, Solute carrier family 22 member 2; assay: TP_TRANSPORTER: inhibition of TEA uptake (TEA: 5 uM, Levofloxacin: 2500 uM) in OCT2A-expressing HEK293 cells; details: hek293, 2500 µM
[4] = molecular target: T1, Solute carrier family 22 member 2; assay: TP_TRANSPORTER: inhibition of TEA uptake (TEA: 5 uM, Levofloxacin: 2500 uM) in OCT2-expressing HEK293 cells; details: hek293, 2500 µM
[5] = molecular target: T1, Solute carrier family 22 member 2; assay: TP_TRANSPORTER: inhibition of TEA uptake (TEA: 5 uM, Serotonin: 1000 uM) in OCT2A-expressing HEK293 cells; details: hek293, 1000 µM
[6] = molecular target: T1, Solute carrier family 22 member 2; assay: TP_TRANSPORTER: inhibition of TEA uptake (TEA: 5 uM, Serotonin: 1000 uM) in OCT2-expressing HEK293 cells; details: hek293, 1000 µM
[7] = molecular target: T1, Solute carrier family 22 member 2; assay: TP_TRANSPORTER: inhibition of TEA uptake (TEA: 5 uM, Noradrenaline: 1000 uM) in OCT2A-expressing HEK293 cells; details: hek293, 1000 µM
[8] = molecular target: T1, Solute carrier family 22 member 2; assay: TP_TRANSPORTER: inhibition of TEA uptake (TEA: 5 uM, Noradrenaline: 1000 uM) in OCT2-expressing HEK293 cells; details: hek293, 1000 µM
[9] = molecular target: T1, Solute carrier family 22 member 2; assay: TP_TRANSPORTER: inhibition of TEA uptake (TEA: 5 uM, Imipramine: 1000 uM) in OCT2A-expressing HEK293 cells; details: hek293, 1000 µM
[10] = molecular target: T1, Solute carrier family 22 member 2; assay: TP_TRANSPORTER: inhibition of TEA uptake (TEA: 5 uM, Imipramine: 1000 uM) in OCT2-expressing HEK293 cells; details: hek293, 1000 µM
[11] = molecular target: T1, Solute carrier family 22 member 2; assay: TP_TRANSPORTER: inhibition of TEA uptake (TEA: 5 uM, Amantadine: 100 uM) in OCT2A-expressing HEK293 cells; details: hek293, 100 µM
[12] = molecular target: T1, Solute carrier family 22 member 2; assay: TP_TRANSPORTER: inhibition of TEA uptake (TEA: 5 uM, MPP+: 1000 uM) in OCT2A-expressing HEK293 cells; details: hek293, 1000 µM
[13] = molecular target: T1, Solute carrier family 22 member 2; assay: TP_TRANSPORTER: inhibition of TEA uptake (TEA: 5 uM, N-acetyl procainamide: 1000 uM) in OCT2A-expressing HEK293 cells; details: hek293, 1000 µM
[14] = molecular target: T1, Solute carrier family 22 member 2; assay: TP_TRANSPORTER: inhibition of TEA uptake (TEA: 5 uM, N-acetyl procainamide: 1000 uM) in OCT2-expressing HEK293 cells; details: hek293, 1000 µM
[15] = molecular target: T1, Solute carrier family 22 member 2; assay: TP_TRANSPORTER: inhibition of TEA uptake (TEA: 5 uM, Creatinine: 1000 uM) in OCT2A-expressing HEK293 cells; details: hek293, 1000 µM
[16] = molecular target: T1, Solute carrier family 22 member 2; assay: TP_TRANSPORTER: inhibition of TEA uptake (TEA: 5 uM, Creatinine: 1000 uM) in OCT2-expressing HEK293 cells; details: hek293, 1000 µM
[17] = molecular target: T1, Solute carrier family 22 member 2; assay: TP_TRANSPORTER: inhibition of TEA uptake (TEA: 5 uM, Procainamide: 1000 uM) in OCT2A-expressing HEK293 cells; details: hek293, 1000 µM
[18] = molecular target: T1, Solute carrier family 22 member 2; assay: TP_TRANSPORTER: inhibition of TEA uptake (TEA: 5 uM, Procainamide: 1000 uM) in OCT2-expressing HEK293 cells; details: hek293, 1000 µM
[19] = molecular target: T1, Solute carrier family 22 member 2; assay: TP_TRANSPORTER: inhibition of TEA uptake (TEA: 5 uM, GPFX: 2500 uM) in OCT2-expressing HEK293 cells; details: hek293, 2500 µM
[20] = molecular target: T1, Solute carrier family 22 member 2; assay: TP_TRANSPORTER: inhibition of TEA uptake (TEA: 5 uM, GPFX: 2500 uM) in OCT2A-expressing HEK293 cells; details: hek293, 2500 µM
[21] = molecular target: T1, Solute carrier family 22 member 2; assay: TP_TRANSPORTER: inhibition of TEA uptake (TEA: 5 uM, NMN: 1000 uM) in OCT2A-expressing HEK293 cells; details: hek293, 1000 µM
[22] = molecular target: T1, Solute carrier family 22 member 2; assay: TP_TRANSPORTER: inhibition of TEA uptake (TEA: 5 uM, Guanidine: 1000 uM) in OCT2A-expressing HEK293 cells; details: hek293, 1000 µM
[23] = molecular target: T1, Solute carrier family 22 member 2; assay: TP_TRANSPORTER: inhibition of TEA uptake (TEA: 5 uM, Guanidine: 1000 uM) in OCT2-expressing HEK293 cells; details: hek293, 1000 µM

Activity [1]: is not a substrate [-] | Activity [2]: is not a substrate [-] | Activity [4]: is not an inhibitor [-]
Compound: C[C@H]1COc2c(N3CCN(C)CC3)c(F)cc3c(=O)c(C(=O)O)cn1c23.C[C@H]1COc2c(N3CCN(C)CC3)c(F)cc3c(=O)c(C(=O)O)cn1c23.O [LEVOFLOXACIN]
Activity [3]: inhibitor [(at a rough estimate) 25 % of control]

Compound: NCCc1c[nH]c2ccc(O)cc12 [SEROTONIN]
Activity [5]: inhibitor [(at a rough estimate) 35 % of control] | Activity [6]: inhibitor [(at a rough estimate) 55 % of control]

Activity [7]: is not an inhibitor [-]
Compound: NC[C@H](O)c1ccc(O)c(O)c1 [NOREPINEPHRINE]
Activity [8]: inhibitor [(at a rough estimate) 65 % of control]

Compound: CN/C(=N/CCSCc1nc[nH]c1C)NC#N [CIMETIDINE]
Activity [2]: is not a substrate [-]

Compound: CN(C)CCCN1c2ccccc2CCc2ccccc21 [IMIPRAMINE]
Activity [9]: inhibitor [(at a rough estimate) 5 % of control] | Activity [10]: inhibitor [(at a rough estimate) 10 % of control]

Compound: NC12CC3CC(CC(C3)C1)C2 [AMANTADINE]
Activity [11]: inhibitor [(at a rough estimate) 5 % of control]

Compound: C[n+]1ccc(-c2ccccc2)cc1
Activity [2]: substrate [+] | Activity [12]: inhibitor [(at a rough estimate) 5 % of control]

Activity [14]: is not an inhibitor [-]
Compound: CCN(CC)CCNC(=O)c1ccc(NC(C)=O)cc1 [ACECAINIDE]
Activity [13]: inhibitor [(at a rough estimate) 15 % of control]

Compound: CN1CC(=O)NC1=N [CREATININE]
Activity [15]: inhibitor [(at a rough estimate) 95 % of control] | Activity [16]: inhibitor [(at a rough estimate) 80 % of control]

Activity [18]: is not an inhibitor [-]
Compound: CCN(CC)CCNC(=O)c1ccc(N)cc1 [PROCAINAMIDE]
Activity [17]: inhibitor [(at a rough estimate) 15 % of control]

Activity [1]: is not a substrate [-] | Activity [2]: is not a substrate [-]
Compound: Cc1cn([C@H]2C[C@H](N=[N+]=[N-])[C@@H](CO)O2)c(=O)[nH]c1=O [ZIDOVUDINE]

Compound: Cc1c(F)c(N2CCNC(C)C2)cc2c1c(=O)c(C(=O)O)cn2C1CC1 (centres undefined) [GREPAFLOXACIN]
Activity [19]: inhibitor [(at a rough estimate) 30 % of control] | Activity [20]: inhibitor [(at a rough estimate) 5 % of control]

Compound: CNC(=O)c1cccnc1 [NICOTINYL METHYLAMIDE]
Activity [21]: inhibitor [(at a rough estimate) 30 % of control]

Activity [1]: substrate [+] | Activity [2]: is not a substrate [-]
Compound: N=C(N)N [GUANIDINE]
Activity [22]: inhibitor [(at a rough estimate) 80 % of control] | Activity [23]: inhibitor [(at a rough estimate) 60 % of control]
